# Test results from patent US8703066B2, “Sterilization system and method” (Noxilizer, Inc., priority 2004, dated 2014).
# Legend:
# [1] = tested on: sporulated B. subtilis var. niger; assay: Sterilization with varying quantities of delivered nitric oxide, contaminated stainless steel strips; format: cell-based; details: 5%, 2.5% and 1% NO in air, five minutes, culture in LB 48 hours then plating
# Excerpt: A blood storage container (Nexell, Irvine, Calif.; Lifecell PL732 plastic tissue culture flask) is used as the sterilization chamber. Strips of stainless steel are dipped in 10^6 CFU/ml sporulated B. subtilis var. niger (as determined by ABS595 standardization curves). The strips are allowed to air dry, placed in the sterilization chamber, and then the sterilization chamber is heat sealed. The sterilization chamber is evacuated using a syringe and controlling air flow with the sterilization chamber valves. A known quantity of air is added to the vessel using a graduated syringe.
# An NO-generating donor compound is placed in a 7 cc gas generation chamber. The gas generation chamber is attached to the storage container through luer lock connectors. The liquid activator, 3.0N HCl is added to the gas generation chamber and the generated gas is allowed to flow into the sterilization chamber. After a brief generation period, the gas is sealed in the sterilization chamber using a compression valve.
# Varying quantities of NO gas, namely 10%, 5%, 2.5% and 1% NO, are tested for their efficacy in the sterilization chamber. The quantity (%) of NO gas generated and added to the sterilization chamber is calculated from the number of moles of NO required to be generated to result in the desired percentage of NO. […]
# B. subtilis (vegetative) = assay: Portable system (blood storage container) sterilization of stainless steel coupons; format: cell-based, Bacillus subtilis; details: fifteen minute sterilization cycle; NO from acidified diazeniumdiolate; 1 ATM; stainless steel coupon, at least 10^8 CFU/ml
# Excerpt: (§1) Similar to Example 1, a portable system is devised using blood storage containers and other laboratory items. In this construct, a blood storage container (Nexell, Irvine, Calif.; Lifecell PL732 plastic tissue culture flask) serves as the sterilization chamber. It has multiple ports, is easily attached to tubing or other chambers, and is easily cut and heat sealed for insertion and removal of contaminated/sterilized samples. The heat seal is strong and holds well at pressure, even though 1 ATM of pressure is used experimentally. Two 60 ml syringes connected to each other and a line of tubing by a three-way stopcock are employed to mix acidic buffer in one syringe with NO-releasing diazeniumdiolate in the other syringe. The tubing is connected to the blood container/sterilization chamber.
# (§2) The stopcock is turned so that the acidic buffer can be added to the syringe containing the diazeniumdiolate. The valve is immediately closed to the buffer syringe and opened to the sterilization chamber. The 300 cc sterilization chamber inflates in about 15 seconds. Experiments are performed as described above, except that the devised system is used instead of the pressure vessel.
# The test organisms are cultured overnight in BHI. The cultures contained at least 10^8 CFU/ml (100-fold greater than FDA testing guidelines) based on standardized ABS595 curves for each organism. […]
# [2] = tested on: Staphylococcus epidermides; assay: as above; format: cell-based; details: fifteen minute sterilization cycle; NO from acidified diazeniumdiolate; 1 ATM; stainless steel coupon, at least 10^8 CFU/ml
# Excerpt: as §1, §2
# (§3) The test organisms are cultured overnight in BHI. The cultures contained at least 10^8 CFU/ml (100-fold greater than FDA testing guidelines) based on standardized ABS595 curves for each organism. Stainless steel coupons, 3×1 cm, are dipped in the cultures, and either dried in ambient air first or placed in the pressure vessel still wet from the culture dip. The dried samples are dipped in sterile BHI media before being placed in the sterilization chamber.
# [3] = tested on: Bacillus subtilis (spore); assay: as above; format: cell-based; details: fifteen minute sterilization cycle; NO from acidified diazeniumdiolate; 1 ATM; stainless steel coupon, at least 10^8 CFU/ml
# Excerpt: as §1, §2, §3
# Serratia marcesens = assay: as above; format: cell-based; details: fifteen minute sterilization cycle; NO from acidified diazeniumdiolate; 1 ATM; stainless steel coupon, at least 10^8 CFU/ml
# Excerpt: as §1, §2, §3
# [4] = tested on: bacterial cocktail containing B. subtilis, S. marcesens, and S. epidermides; assay: Sterilization of medical materials (tubing, needle); format: cell-based; details: 15 min sterilization cycle, about 10^8 total CFU/ml
# Description: An additional study is performed to test medically relevant materials such as needles and plastic tubing. Teflon (⅛′ ID), polyethylene (1.77 mm ID), vinyl (0.5 mm ID) tubing and a 30 ga. disposable needle are dipped in a bacterial cocktail containing B. subtilis, S. marcesens, and S. epidermides at about 10^8 total CFU/ml The samples are placed in the sterilization chamber and sealed. In each case, the lumen of the tubing or contained at least some visually confirmed inoculum. […] The controls for each material reached at least 10^6 total CFU/ml in 24 hrs as determined by ABS595 standardization curves.
# [5] = tested on: Klebsiella pneumoniae (str 21991); assay: Pressure vessel sterilization of contaminated stainless steel coupons with NO gas; format: cell-based; details: five minute sterilization cycle; pure NO at atmospheric pressure; stainless steel coupons dipped in at least 10^8 CFU/ml
# Excerpt: (§4) A glass pressure vessel is connected to a scrubbed NO gas tank source. The pressure vessel is purged five times with Argon gas to eliminate atmospheric oxygen (preventing formation of NO2.) and an additional three purges of NO are used to ensure a pure NO atmosphere and consistent results of bactericidal activity. To test the sterilization method: Bacillus subtilis var niger 9372 is used (after obtaining >80% endospore formation; a standard for ethylene oxide and autoclave test sterilization), as well as organisms commonly found on the epidermis: Staphylococcus aureus (str 21769) and Staphylococcus epidermides (str 21977), and the enteric organisms: Klebsiella pneumoniae (str 21991) and Serratia marcesens (str 21140). This particular Serratia strain has been found in previous studies to be one of the most resistant bacteria to the bactericidal effects of NO in culture (Raulli et al., 2002).
# (§5) The organisms are cultured overnight in BHI. The cultures contained at least 10^8 CFU/ml based on standardized ABS595 curves for each organism. Stainless steel coupons, 3×1 cm, are dipped in the cultures, and either dried in ambient air first or placed in the pressure vessel still wet from the culture dip. The coupons are exposed to NO gas at atmospheric pressure for decreasing time periods starting with 45 min and working back to 5 min. Control samples are handled identically, except the pressure vessel was gassed with nitrogen.
# (§6) The sealed vessel is carefully opened in a laminar flow hood after all the NO had been purged with Argon. The samples are removed aseptically with sterilized tongs and placed in culture tubes containing sterile BHI media. The samples are incubated in a vigorously shaking waterbath at 35° C. The samples are observed (digitally photographed) 24 hrs later, placed back in the waterbath and are measured for absorbance 72 hrs later. The controls had >10^8 CFU/ml after 24 hrs.
# [6] = tested on: Staphylococcus aureus (str 21769); assay: as above; format: cell-based; details: five minute sterilization cycle; pure NO at atmospheric pressure; stainless steel coupons dipped in at least 10^8 CFU/ml
# Excerpt: as §4, §5, §6
# [7] = tested on: Bacillus subtilis var niger 9372; assay: as above; format: cell-based; details: five minute sterilization cycle; pure NO at atmospheric pressure; stainless steel coupons dipped in at least 10^8 CFU/ml
# Excerpt: as §4, §5, §6
# [8] = tested on: Serratia marcesens (str 21140); assay: as above; format: cell-based; details: five minute sterilization cycle; pure NO at atmospheric pressure; stainless steel coupons dipped in at least 10^8 CFU/ml
# Excerpt: as §4, §5, §6
# [9] = tested on: Staphylococcus epidermides (str 21977); assay: as above; format: cell-based; details: five minute sterilization cycle; pure NO at atmospheric pressure; stainless steel coupons dipped in at least 10^8 CFU/ml
# Excerpt: as §4, §5, §6
# cocktail of bacteria = assay: Humidity effects: sterilization of sealed and unsealed dry stainless steel coupons; format: cell-based; details: 15 min sterilization cycle at 1 ATM, 2/2 trials
# Description: Several humidifying paradigms and the ability to sterilize through a gas sterilization seal pouch is tested. A cocktail of bacteria is used, all grown to about 10^8 CFU/ml and mixed in equal volume. Stainless steel coupons are dipped, allowed to dry, and subject to one of three methods. Method A samples are wrapped in a moist Kimwipe, Method B samples are left dry, and Method C samples are sealed, dry, in a V. Mueller™ Dual Peel Seal Pouch, designed for gas and autoclave sterilizations. Samples from methods B and C are placed in the sterilization chamber with a moist Kimwipe, which is placed in the chamber so as to insure maximal separation of the Kimwipe and the sample to be sterilized. The chamber is re-sealed carefully so as not to disturb the positioning of the samples relative to the Kimwipe. The samples are subject to a 15 min sterilization cycle at 1 ATM, removed under sterile conditions, and the samples are placed in BHI media as described above. Control samples are handled identically except for the chamber being gassed with […]. All controls reached greater than […] total CFU/ml in 24 hrs as determined by ABS595 standardization curves.
compound,measurement,setting,value
"[N]=O [NO, nitric oxide]",killing of 10^6 CFU/ml sporulated B. subtilis var. niger,[1],effective at killing
same,Killed (trials),B. subtilis (vegetative),2/2 Killed
same,Killed (trials),[2],3/3 Killed
same,Killed (trials),[3],2/2 Killed
same,Killed (trials),Serratia marcesens,3/3 Killed
same,Killed (trials),[4]; Disposable Needle 30 ga.,2/2 Killed
same,Killed (trials),[4]; Polyethylene Tubing 1.77 mm ID,2/2 Killed
same,Killed (trials),[4]; Teflon Tubing 1/8' ID,2/2 Killed
same,Killed (trials),[4]; Vinyl Tubing 0.5 mm ID,2/2 Killed
same,Killed (trials with no bacterial growth / trials),[5],3/3 Killed
same,Killed (trials with no bacterial growth / trials),[6],3/3 Killed
same,Killed (trials with no bacterial growth / trials),[7],3/3 Killed
same,Killed (trials with no bacterial growth / trials),[8],3/3 Killed
same,Killed (trials with no bacterial growth / trials),[9],3/3 Killed
same,Killed (trials),cocktail of bacteria; Method A Moist Kimwipe Wrap,Killed
same,Killed (trials),"cocktail of bacteria; Method B Dry sample, moist Kimwipe apart in chamber",Killed
same,Killed (trials),"cocktail of bacteria; Method C Dry, Sealed Sample in Dual Peel Seal Pouch, moist Kimwipe apart in chamber",Killed
